# Data from patent EP1226131B1, “ISOXAZOLECARBOXAMIDE DERIVATIVES” (RECORDATI INDUSTRIA CHIMICA E FARMACEUTICA S.p.a., priority 1999, dated 2001).
# Key:
# α1L adrenoceptor = test: Functional antagonism of noradrenaline-induced contractions of rabbit aorta pretreated with chloroethylclonidine; type: biochemical; settings: functional affinity, NA-induced contractions
# Description: Adult male New Zealand rabbits were sacrificed by cervical dislocation. The aorta was removed, placed in Krebs-Henseleit buffer and dissected free of adhering tissue.
# Each antagonist concentration was tested using 2-3 aortic rings from different rabbits.
# Dose ratios (i.e., the ratio between the concentrations of noradrenaline required to produce half-maximal response in the presence and in the absence of the test antagonist) were calculated at each concentration of the compounds.
# [1] = test system: urethral contractions (UP) induced by noradrenaline (NA); test: Urethral contractions induced by noradrenaline injection in anaesthetised dogs, i.v. administration; type: in vivo; settings: dog
# Description: (§1) The experiments were performed according to the method of Imagawa J. et al., J Pharmacol. Methods 22, 103-111 (1989), with substantial modifications, as follows: adult male beagle dogs, weighing 8-10 kg, were anaesthetised with pentobarbital sodium (30 mg/kg i.v. and 2 mg/kg/h i.v.), intubated and spontaneously ventilated with room air. In order to monitor systemic blood pressure (BP), a polyethylene (PE) catheter was introduced into the aortic arch through the left femoral artery. A collateral of the left femoral vein was cannulated for infusion of anaesthetic, and the right femoral vein was cannulated for administration of the compounds. For intraarterial (i.a.) injection of noradrenaline (NA), a PE catheter was introduced into the lower portion of the abdominal aorta via the right external iliac artery. Through such procedure, NA was selectively distributed to the lower urinary tract. A paramedian vertical suprapubic incision extending from the base of the pelvis to the mid-abdominal region was made and the bladder and the prostate were exposed. The bladder was manually emptied with a syringe. […] The distal end of the right or left branch of the nerve was placed on a bipolar platinum electrode. Prostatic urethral pressure was monitored with a Mikro-tip cathe[…]) introduced into the bladder via the external urethral meatus, and withdrawn until the pressure transducer was positioned in the prostatic region of the urethra. A ligature was secured between the neck of the bladder and urethra to isolate the response of the latter and to avoid any interaction with the bladder. Another ligature was put around the Mikro-tip catheter at the external meatus, to secure the catheter itself. […] Both i.a. injections of NA and stimulations of the hypogastric nerve were repeated 5 minutes after every dosing of test compound with intervals of about 5 minutes between two stimulations. In order to compare the effects of the administered compound, dose/response curves were constructed by computing, at the peak effect, the percent decrease in diastolic blood pressure and the percent inhibition of the increase in urethral pressure induced by both types of stimulation used.
# [2] = test system: urethral contractions (UP) induced by hypogastric-nerve stimulation (HYP); test: Urethral contractions induced by hypogastric-nerve stimulation in anaesthetised dogs, i.v. administration; type: in vivo; settings: Canis lupus familiaris, iv, dog, dose inhibiting by 50% urethral contractions induced by hypogastric-nerve stimulation, read-out: UP ID50 HYP
# Description: as §1, with “In order to compare the effects of the administered compound, dose/response curves were constructed by computing, at the peak effect, the percent decrease in diastolic blood pressure and the percent inhibition of the increase in urethral pressure induced by both types of stimulation used.” left out
# [3] = test system: diastolic blood pressure (DBP); test: Effect on diastolic blood pressure in anaesthetised dogs, i.v. administration; type: in vivo; settings: dog, dose inducing a 25% decrease in diastolic blood pressure, one value spanning c3 and c4
# Description: The experiments were performed according to the method of Imagawa J. et al., J Pharmacol. Methods 22, 103-111 (1989), with substantial modifications, as follows: adult male beagle dogs, weighing 8-10 kg, were anaesthetised with pentobarbital sodium (30 mg/kg i.v. and 2 mg/kg/h i.v.), intubated and spontaneously ventilated with room air. In order to monitor systemic blood pressure (BP), a polyethylene (PE) catheter was introduced into the aortic arch through the left femoral artery. A collateral of the left femoral vein was cannulated for infusion of anaesthetic, and the right femoral vein was cannulated for administration of the compounds. For intraarterial (i.a.) injection of noradrenaline (NA), a PE catheter was introduced into the lower portion of the abdominal aorta via the right external iliac artery. Through such procedure, NA was selectively distributed to the lower urinary tract. A paramedian vertical suprapubic incision extending from the base of the pelvis to the mid-abdominal region was made and the bladder and the prostate were exposed. The bladder was manually emptied with a syringe. […] The distal end of the right or left branch of the nerve was placed on a bipolar platinum electrode. Prostatic urethral pressure was monitored with a Mikro-tip catheter (5F) introduced into the bladder via the external urethral meatus, and withdrawn until the pressure transducer was positioned in the prostatic region of the urethra. A ligature was secured between the neck of the bladder and urethra to isolate the response of the latter and to avoid any interaction with the bladder. Another ligature was put around the Mikro-tip catheter at the external meatus, to secure the catheter itself. The hypogastric nerve stimulation was made with a train of rectangular pulses of 10-15 V, 10-30 Hz, width 5 msec, 8 sec duration.
# After a stabilising period following the surgical procedure (30 minutes), in which arterial and prostatic urethral pressure were continuously monitored as basal values, i.a. administration of NA and stimulation of the hypogastric nerve were alternately made at intervals of 10 minutes.
# The dose of NA and the parameter of hypogastric nerve stimulation chosen were such as to produce an increase of at least 100% in urethral pressure. The test compounds were administered i.v. in a cumulative manner with intervals of 15-20 min between administrations. Both i.a. injections of NA and stimulations of the hypogastric nerve were repeated 5 minutes after every dosing of test compound with intervals of about 5 minutes between two stimulations. […]
# α1a adrenergic receptor = molecular target: T1, α1a adrenergic receptor (Homo sapiens, UniProt P35348); test: Radioligand binding assay ([3H]prazosin) on cloned α1-adrenoceptor subtype, membranes of transfected cells
# T1 sequence (P35348 1-466): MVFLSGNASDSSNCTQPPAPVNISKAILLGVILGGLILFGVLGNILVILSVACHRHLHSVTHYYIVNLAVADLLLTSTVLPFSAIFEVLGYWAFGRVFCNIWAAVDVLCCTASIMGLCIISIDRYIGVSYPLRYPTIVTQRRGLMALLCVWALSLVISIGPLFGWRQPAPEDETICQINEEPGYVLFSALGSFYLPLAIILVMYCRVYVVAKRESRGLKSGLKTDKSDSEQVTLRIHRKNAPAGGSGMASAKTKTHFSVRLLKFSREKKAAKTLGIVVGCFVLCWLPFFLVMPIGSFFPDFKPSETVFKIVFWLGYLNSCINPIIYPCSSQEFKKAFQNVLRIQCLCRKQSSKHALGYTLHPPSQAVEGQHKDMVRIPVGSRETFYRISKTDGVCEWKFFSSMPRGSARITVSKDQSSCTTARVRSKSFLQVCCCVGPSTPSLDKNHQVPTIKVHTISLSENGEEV
# Description: (§2) Determination of affinity for cloned subtypes of the cloned α1-adrenoceptor was performed in membranes from cells transfected by electroporation with DNA expressing the genes encoding each α1-adrenoceptor subtype.
# (§3) Non-specific binding was determined in the presence of 10 µM phentolamine. Incubation was stopped by addition of ice-cold Tris buffer and rapid filtration through 0.2%-polyethyleneimine pretreated Schleicher & Schuell GF52 filters. […] The homogenates were centrifuged at 40000 × g × 20 minutes and the membranes were resuspended in a small volume of ice-cold buffer containing Tris 5 mM and EDTA 5 mM (pH 7.4) and immediately frozen and stored at -70°C until use.
# Data were expressed as mean of Ki.
# [4] = molecular target: T2, recombinant α1d-adrenoceptor (Homo sapiens, UniProt P25100); test: as above
# T2 sequence (P25100 1-572): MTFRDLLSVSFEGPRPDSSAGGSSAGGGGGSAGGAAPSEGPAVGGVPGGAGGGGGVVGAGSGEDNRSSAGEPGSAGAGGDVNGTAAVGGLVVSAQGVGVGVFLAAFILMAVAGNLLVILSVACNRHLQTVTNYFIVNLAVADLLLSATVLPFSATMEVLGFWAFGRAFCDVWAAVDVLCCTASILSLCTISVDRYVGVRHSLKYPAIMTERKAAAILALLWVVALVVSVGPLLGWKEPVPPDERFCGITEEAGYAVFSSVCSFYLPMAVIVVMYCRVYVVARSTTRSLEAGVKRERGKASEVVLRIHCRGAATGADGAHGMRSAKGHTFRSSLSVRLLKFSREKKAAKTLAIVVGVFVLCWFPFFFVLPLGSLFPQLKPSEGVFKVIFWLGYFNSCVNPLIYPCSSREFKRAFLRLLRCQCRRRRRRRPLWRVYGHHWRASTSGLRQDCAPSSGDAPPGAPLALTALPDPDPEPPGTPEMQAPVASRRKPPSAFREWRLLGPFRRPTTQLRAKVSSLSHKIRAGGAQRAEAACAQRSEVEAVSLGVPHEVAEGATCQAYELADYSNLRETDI
# Description: as §2, §3
# Data were expressed as mean of Ki.
compound,measurement,setting,value
"Cc1onc(-c2ccccc2)c1C(=O)NCCCN1CCN(c2ccccc2OCC(F)(F)F)CC1 [Example 3, 5-Methyl-3-phenyl-N-{3-[4-[2-(2,2,2-trifluoroethoxy)-phenyl]-1-piperazinyl]-propyl}isoxazole-4-carboxamide]",pKb,α1L adrenoceptor,8.47
same,ED50,"[1]; Canis lupus familiaris, iv, dose inhibiting by 50% urethral contractions induced by noradrenaline, read-out: UP ID50 NA",1.3 µg/kg
same,R1 (DBP/NA),[1]; ratio DBP ED25 / UP ID50 NA,396
same,ED50,[2],2.4 µg/kg
same,DBP ED25,[3],514.7 µg/kg
same,Ki,α1a adrenergic receptor,0.066 nM
same,Ki,[4],1.45 nM
